In EPA's ToxRefDB 2:

How the values were obtained:
mouse [1] = conditions: Prenatal developmental toxicity study, cd1, Oral, Gavage/Intubation, dose end: 15 GD
rabbit [2] = conditions: Prenatal developmental toxicity study, new zealand white, Oral, Gavage/Intubation, dose end: 19 GD, group: maternal
dog [3] = conditions: Chronic toxicity, beagle, Oral, Feed, dose end: 52 week, group: systemic
rat [4] = conditions: Prenatal developmental toxicity study, wistar, Oral, Gavage/Intubation, dose end: 15 GD
rabbit [5] = conditions: Prenatal developmental toxicity study, chinchilla, Oral, Gavage/Intubation, dose end: 27 GD
dog [6] = conditions: Chronic toxicity, beagle, Oral, Feed, dose end: 80 day, group: systemic
mouse [7] = conditions: Carcinogenicity, other, Oral, [Not Specified], dose end: 104 week, group: systemic
dog [8] = conditions: Subchronic oral toxicity in nonrodent, beagle, Feed, dose end: 90 day, group: systemic, systemic / hematology / methemoglobin / methemoglobin
rat [9] = conditions: Combined chronic toxicity/carcinogenicity, wistar, Oral, Feed, dose end: 106 week, group: systemic
rat [10] = conditions: Subchronic oral toxicity in rodents, wistar, Feed, dose end: 13 week, group: systemic
rat [11] = conditions: Combined chronic toxicity/carcinogenicity, sprague dawley, Oral, Feed, dose end: 104 week
rat [12] = conditions: Prenatal developmental toxicity study, wistar, Oral, Gavage/Intubation, dose end: 15 GD; remark: listed apart in the source
rat [13] = conditions: Multigenerational reproductive toxicity study, other, Oral, Feed, dose end: 2 generation
rat [14] = conditions: Subchronic oral toxicity in rodents, wistar, Feed, dose end: 13 week
rat [15] = conditions: Combined chronic toxicity/carcinogenicity, sprague dawley, Oral, Feed, dose end: 24 month, group: systemic
mouse [16] = conditions: Carcinogenicity, cd1, Oral, Feed, dose end: 78 week, group: systemic
dog [17] = conditions: Subchronic oral toxicity in nonrodent, beagle, Capsule, dose end: 98 day, group: systemic
dog [18] = conditions: Chronic toxicity, beagle, Oral, Capsule, dose end: 104 week, group: systemic
rat [19] = conditions: Subchronic oral toxicity in rodents, sprague dawley, Feed, dose end: 13 week, group: systemic
[20] = group: developmental, systemic / in life observation / body weight / fetal weight
[21] = group: maternal, reproductive / reproductive performance / resorptions / resorptions + systemic / in life observation / body weight / body weight gain + …
[22] = systemic / in life observation / mortality / mortality + reproductive / reproductive performance / premature delivery / premature delivery
[23] = systemic / hematology / methemoglobin / methemoglobin
[24] = systemic / hematology / methemoglobin / methemoglobin + systemic / clinical chemistry / triiodothyronine (t3) / triiodothyronine (t3), total
[25] = group: developmental, developmental / developmental malformation / bone / absent + developmental / developmental malformation / bone / bipartite ossification + …
[26] = group: maternal, systemic / in life observation / body weight / body weight gain + systemic / in life observation / food consumption / food consumption
[27] = group: developmental, systemic / in life observation / body weight / fetal weight + developmental / developmental malformation / bone / unossified
[28] = group: maternal, systemic / in life observation / body weight / body weight gain + systemic / in life observation / food consumption / food consumption + …
[29] = systemic / hematology / methemoglobin / methemoglobin + systemic / urinalysis / appearance and color / appearance and color
[30] = systemic / hematology / anemia / anemia - heinz body + systemic / in life observation / body weight / body weight
[31] = systemic / hematology / anemia / anemia - hemolytic + systemic / hematology / erythrocyte (rbc) count differential / erythrocyte (rbc) + …
[32] = systemic / pathology microscopic / thyroid gland / hyperplasia
[33] = systemic / clinical chemistry / thyroxine (t4) / thyroxine (t4), total + systemic / hematology / methemoglobin / methemoglobin + systemic / …
[34] = group: cholinesterase, cholinesterase / cholinesterase / cholinesterase / brain cholinesterase (che)
[35] = group: cholinesterase, cholinesterase / cholinesterase / cholinesterase / erythrocyte cholinesterase (che) + cholinesterase / cholinesterase / cholinesterase / …
[36] = group: systemic, systemic / hematology / erythrocyte (rbc) count differential / erythrocyte (rbc) + systemic / hematology / hematocrit (hct) / hematocrit (…
[37] = group: developmental, developmental / developmental malformation / bone / incomplete ossification + developmental / developmental malformation / bone / unossified…
[38] = group: maternal, systemic / hematology / methemoglobin / methemoglobin
[39] = group: maternal, systemic / hematology / methemoglobin / methemoglobin + systemic / hematology / heinz body / heinz body + systemic / in life observation / …
[40] = group: offspring, systemic / organ weight / kidney / relative to body weight + systemic / organ weight / liver / relative to body weight
[41] = group: parental, systemic / organ weight / spleen / absolute + systemic / organ weight / spleen / relative to body weight + systemic / hematology / anemia / …
[42] = group: parental, systemic / organ weight / spleen / absolute + systemic / organ weight / spleen / relative to body weight + systemic / in life observation / …
[43] = group: reproductive, reproductive / offspring survival early / litter size / litter size
[44] = group: cholinesterase, cholinesterase / cholinesterase / cholinesterase / brain cholinesterase (che) + cholinesterase / cholinesterase / cholinesterase / …
[45] = group: systemic, systemic / hematology / anemia / anemia - macrocytic + systemic / hematology / erythrocyte (rbc) count differential / erythrocyte (rbc) + …
[46] = systemic / in life observation / body weight / body weight + systemic / organ weight / liver / relative to body weight + systemic / clinical…
[47] = systemic / pathology gross / liver / enlarged + systemic / pathology microscopic / liver / glycogen deposition
[48] = systemic / pathology gross / liver / enlarged + systemic / pathology microscopic / liver / glycogen deposition + systemic / clinical …
[49] = systemic / in life observation / clinical signs / emesis + systemic / in life observation / clinical signs / salivation + systemic / in life…
[50] = systemic / in life observation / clinical signs / soft stools + systemic / in life observation / clinical signs / emesis
[51] = systemic / clinical chemistry / aspartate aminotransferase (ast/sgot) / aspartate aminotransferase (ast/sgot)

## [O]=[Cr](=[O])([OH])[OH] [Chromic(VI) acid]
Mouse [1]; [20]
  LEL: 120 mg/kg/day
  LOAEL: > 120 mg/kg/day
  NEL: 60 mg/kg/day
  NOAEL: ≥ 120 mg/kg/day
Mouse [1]; [21]
  LEL: 120 mg/kg/day
  LOAEL: 120 mg/kg/day
  NEL: 60 mg/kg/day
  NOAEL: 60 mg/kg/day
Rabbit [2]; systemic / in life observation / mortality / mortality
  LOAEL: 2 mg/kg/day
Rabbit [2]; [22]
  LEL: 2 mg/kg/day
  NEL: 0.5 mg/kg/day
  NOAEL: 0.5 mg/kg/day

## CCOC(=O)Nc1cccc(OC(=O)Nc2ccccc2)c1 [Desmedipham]
Dog [3]; [23]
  LOAEL: 9.6 mg/kg/day
  NOAEL: < 9.6 mg/kg/day
Dog [3]; [24]
  LEL: 9.6 mg/kg/day
  NEL: < 9.6 mg/kg/day
Rat [4]; [25]
  LEL: 1000 mg/kg/day
  LOAEL: 1000 mg/kg/day
  NEL: 100 mg/kg/day
  NOAEL: 100 mg/kg/day
Rat [4]; [26]
  LEL: 1000 mg/kg/day
  LOAEL: 1000 mg/kg/day
  NEL: 100 mg/kg/day
  NOAEL: 100 mg/kg/day
Rabbit [5]; [27]
  LEL: 450 mg/kg/day
  LOAEL: 450 mg/kg/day
  NEL: 150 mg/kg/day
  NOAEL: 150 mg/kg/day
Rabbit [5]; group: maternal, systemic / in life observation / body weight / body weight gain
  LOAEL: 450 mg/kg/day
Rabbit [5]; [28]
  LEL: 450 mg/kg/day
  NEL: 150 mg/kg/day
  NOAEL: 150 mg/kg/day
Dog [6]; [23]
  LOAEL: 12.5 mg/kg/day
  NOAEL: < 12.5 mg/kg/day
Dog [6]; [29]
  LEL: 12.5 mg/kg/day
  NEL: < 12.5 mg/kg/day
Mouse [7]; systemic / hematology / anemia / anemia - heinz body
  LOAEL: 109 mg/kg/day
Mouse [7]; [30]
  LEL: 109 mg/kg/day
  NEL: 21.7 mg/kg/day
  NOAEL: 21.7 mg/kg/day
Dog [8]
  LEL: 4.97 mg/kg/day
  LOAEL: 4.97 mg/kg/day
  NEL: 0.17 mg/kg/day
  NOAEL: 0.17 mg/kg/day
Rat [9]; [31]
  LOAEL: 16.1 mg/kg/day
  NOAEL: 3.3 mg/kg/day
Rat [9]; [32]
  LEL: 3.18 mg/kg/day
  NEL: < 3.18 mg/kg/day
Rat [10]; [33]
  LOAEL: 26 mg/kg/day
  NOAEL: 5.2 mg/kg/day
Rat [10]; [23]
  LEL: 5.2 mg/kg/day
Rat [10]; systemic / hematology / methemoglobin / methemoglobin + systemic / clinical chemistry / thyroxine (t4) / thyroxine (t4), total + systemic / …
  NEL: 2.6 mg/kg/day
Rat [11]; [34]
  LOAEL: > 54 mg/kg/day
  NOAEL: ≥ 54 mg/kg/day
Rat [11]; [35]
  LEL: 25 mg/kg/day
  NEL: 5.9 mg/kg/day
Rat [11]; [36]
  LOAEL: 54 mg/kg/day
  NEL: 4.7 mg/kg/day
  NOAEL: 18 mg/kg/day
Rat [11]; group: systemic, systemic / pathology microscopic / lung / focal cellular change + systemic / pathology microscopic / seminal vesicle / secretory fluid
  LEL: 18 mg/kg/day
Rat [12]; [37]
  LEL: 500 mg/kg/day
  LOAEL: 500 mg/kg/day
  NEL: 100 mg/kg/day
  NOAEL: 100 mg/kg/day
Rat [12]; [38]
  LEL: 100 mg/kg/day
  LOAEL: 100 mg/kg/day
Rat [12]; [39]
  NEL: 10 mg/kg/day
  NOAEL: 10 mg/kg/day
Rat [13]; group: offspring, systemic / in life observation / body weight / offspring (pup) weight
  LOAEL: 110 mg/kg/day
Rat [13]; group: offspring, systemic / in life observation / body weight / offspring (pup) weight + systemic / organ weight / heart / absolute + systemic / organ weight…
  NOAEL: 20 mg/kg/day
Rat [13]; [40]
  LEL: 4 mg/kg/day
  NEL: < 4 mg/kg/day
Rat [13]; [41]
  LEL: 20 mg/kg/day
  LOAEL: 20 mg/kg/day
Rat [13]; [42]
  NEL: 4 mg/kg/day
  NOAEL: 4 mg/kg/day
Rat [13]; [43]
  LEL: 110 mg/kg/day
  LOAEL: > 110 mg/kg/day
  NEL: 20 mg/kg/day
  NOAEL: ≥ 110 mg/kg/day
Rat [14]; [44]
  LEL: 15 mg/kg/day
  LOAEL: 15 mg/kg/day
  NEL: < 15 mg/kg/day
  NOAEL: < 15 mg/kg/day
Rat [14]; [45]
  LEL: 15 mg/kg/day
  LOAEL: 15 mg/kg/day
  NEL: < 15 mg/kg/day
  NOAEL: < 15 mg/kg/day

## CC(C)Oc1cccc(NC(=O)c2ccccc2C(F)(F)F)c1 [Flutolanil]
Rat [15]; systemic / in life observation / body weight / body weight + systemic / organ weight / liver / relative to body weight
  LOAEL: 460 mg/kg/day
Rat [15]; [46]
  LEL: 460 mg/kg/day
  NOAEL: 86.9 mg/kg/day
Rat [15]; systemic / organ weight / liver / relative to body weight
  NEL: 86.9 mg/kg/day
Mouse [16]; systemic / in life observation / body weight / body weight gain
  LOAEL: 839 mg/kg/day
Mouse [16]; systemic / in life observation / body weight / body weight gain + systemic / organ weight / liver / absolute + systemic / organ weight / …
  NOAEL: 168 mg/kg/day
Mouse [16]; systemic / pathology microscopic / liver / vacuolization
  LEL: 162 mg/kg/day
Mouse [16]; systemic / pathology microscopic / liver / vacuolization + systemic / in life observation / body weight / body weight gain
  NEL: 32 mg/kg/day
Dog [17]; [47]
  LEL: 400 mg/kg/day
  LOAEL: 400 mg/kg/day
Dog [17]; [48]
  NEL: 80 mg/kg/day
  NOAEL: 80 mg/kg/day
Dog [18]; [49]
  LOAEL: 250 mg/kg/day
  NOAEL: 50 mg/kg/day
Dog [18]; [50]
  LEL: 50 mg/kg/day
  NEL: < 50 mg/kg/day
Rat [19]; [51]
  LEL: 37 mg/kg/day
  NEL: < 37 mg/kg/day
Rat [19]; systemic / organ weight / liver / absolute + systemic / organ weight / liver / relative to body weight
  LOAEL: 339 mg/kg/day
Rat [19]; systemic / organ weight / liver / absolute + systemic / organ weight / liver / relative to body weight + systemic / clinical chemistry / …
  NOAEL: 44 mg/kg/day
